Experimental data: PMC4053396, “Cloning, expression and biochemical characterization of the cholesterol oxidase CgChoA from Chryseobacterium gleum” (BMC Biotechnology, 2014)

T1: CgChoA (Chryseobacterium gleum, UniProt A0ABP2IT22)
T1 construct: gene HMPREF0204_11499
T1 sequence (A0ABP2IT22 1-528): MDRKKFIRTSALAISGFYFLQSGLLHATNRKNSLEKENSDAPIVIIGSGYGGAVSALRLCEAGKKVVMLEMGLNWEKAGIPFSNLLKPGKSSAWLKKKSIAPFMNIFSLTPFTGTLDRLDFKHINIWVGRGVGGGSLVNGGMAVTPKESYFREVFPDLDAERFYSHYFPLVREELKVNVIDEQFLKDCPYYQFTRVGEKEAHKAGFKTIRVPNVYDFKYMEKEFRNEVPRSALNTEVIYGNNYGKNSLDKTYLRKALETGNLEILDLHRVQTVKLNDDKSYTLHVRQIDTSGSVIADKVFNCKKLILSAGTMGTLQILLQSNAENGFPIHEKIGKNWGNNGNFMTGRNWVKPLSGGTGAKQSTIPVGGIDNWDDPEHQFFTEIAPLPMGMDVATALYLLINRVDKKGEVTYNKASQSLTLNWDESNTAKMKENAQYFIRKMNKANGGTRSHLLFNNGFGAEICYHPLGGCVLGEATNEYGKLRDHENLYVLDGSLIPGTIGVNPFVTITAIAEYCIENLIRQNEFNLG

B1: CgChoA (Chryseobacterium gleum ATCC 35910) (protein)
chain: T1 sequence (A0ABP2IT22 1-528)

Legend:
CgChoA = biological target: T1, CgChoA; assay: UV-vis spectrum of purified protein and of supernatant after boiling; format: binding; conditions: co-purified cofactor; non-covalently bound
[1] = substrate: CC(C)CCC[C@@H](C)[C@H]1CC[C@H]2[C@@H]3CC=C4C[C@@H](O)CC[C@]4(C)[C@H]3CC[C@]12C; assay: HRP-coupled H2O2 assay, initial rates; format: biochemical, Chryseobacterium gleum; conditions: cholesterol dispersed in water with taurocholate as sole surfactant, 0.011 M MOPS pH 6.75, 35°C, O2 as co-substrate

Molecule | UV-vis spectrum of purified protein and of supernatant after boiling (CgChoA) | Km [1] [µM]
Cc1cc2nc3c(=O)[nH]c(=O)nc-3n(C[C@H](O)[C@H](O)[C@H](O)COP(=O)(O)OP(=O)(O)OC[C@H]3O[C@@H](n4cnc5c(N)ncnc54)[C@H](O)[C@@H]3O)c2cc1C [FAD] | Only FAD that is non-covalently associated with the enzyme is detectable by this method | 
B1 |  | 500
